# Data reported in patent US20260373036A1, “A PERSONAL CARE COMPOSITION” (Concpco, Inc., d/b/a UNILEVER, priority 2022, published 2026).
# Tested on: TXNRD1 (Thioredoxin reductase 1) gene
# Experiment: TXNRD1 (thioredoxin reductase 1) gene expression in normal human epidermal keratinocytes (NHEK) by RT-PCR
# Format: cell-based
# Conditions: 24 hours, normalized to YWHAZ, relative to blank control (1.0)
# Method: The normal human epidermal keratinocytes (NHEK, Lot: NHS-2021-006) (Archgene Biotechnology, Shanghai, China) were incubated in medium together with or without actives for 24 hours. After incubation, the total RNA for each NHEK was extracted using Qiagen Mini RNeasy kit (Qiagen, Cat. 74106) according to manufacturer's protocol.
# The extracted RNA was quantified using Nanodrop 2000 spectrometer (Thermo Fisher Scientific, Waltham, MA, US) and reverse transcribed to generate the template cDNA using the ABScript III RT Mast Mix (Cat. BK20428, ABclonal) according to manufacturer's protocol. Amplification of the gene encoding the TXNRD1 (Thioredoxin reductase 1) gene was performed with RT-PCR reagent (Universal SYBR Green Fast qPCR Mix kit, Cat.: RK21203, ABclonal) on the ABI Vii 7 Real-Time PCR Systems (Applied Biosystems, Thermo fisher scientific, Carlsbad, CA, USA). The Tyrosine 3-Monooxygenase/Tryptophan 5-Monooxygenase Activation Protein Zeta gene (YWHAZ) was selected as the housekeeping gene and all data on relative expression of the target genes was normalized to YWHAZ.
Compound,Fold change for gene expression TXNRD1 (0.05 wt % of LCC in medium),"fold induction at 5 µM (Homo sapiens, 5 μM of HR in medium, read-out: Fold change for gene expression TXNRD1)"
Lysine carboxymethyl cysteinate [LCC],1.2,–
"CCCCCCc1ccc(O)cc1O [HR, 4-hexyl resorcinol]",–,1
